The record followed here is US20040092401A1, “Novel alpha-sulfin and alpha-sulfonamino amide derivatives” (priority 2000, published 2004).

The test system of data set [1] is Phytophthora (late blight). In words: whole plant or invertebrate. Type of data set: in vivo. Particulars: in Solanum lycopersicum, read-out: inhibit fungal infestation.
Data set [2] has as its system Phytophthora (late blight). In words: whole plant or invertebrate. Type of data set: in vivo. Conditions: in Solanum tuberosum, read-out: inhibit fungal infestation.
In a further data set the test system is Plasmopara viticola. Particulars: read-out: inhibit fungal infestation.

Where two headings read alike, the source gives them in different places.

Protocol for Plasmopara viticola: 5 week old grape seedlings cv. Gutedel are treated with the formulated test compound in a spray chamber. One day after application grape plants are inoculated by spraying a sporangia suspension (4×104 sporangia/ml) on the lower leaf side of the test plants. After an incubation period of 6 days at +21° C. and 95% r. h. in a greenhouse the disease incidence is assessed.

As usually defined, the melting point is the temperature, or range, at which the solid turns liquid. As for `CCS(=O)(=O)N[C@H](C(=O)NCCc1ccc(OCc2ccccc2)cc1)C(C)C`, the melting point lay in the range of 133 to 134 °C.
Turning to `CCS(=O)(=O)N[C@H](C(=O)NCCc1ccc(OCC#Cc2ccc(Cl)cc2)cc1)C(C)C` [Compound A1.1, (S)-2-Ethanesulfonylamino-N-(2-{4-[3-(4-chloro-phenyl)-propargyloxvy]-phenyl}-ethyl)-3-methyl-butyramide], the inhibition at 200 ppm (in data set [1]; in data set [2]; with Plasmopara viticola) was no less than 80% in each case.
